Converted amounts (≈) assume the structure as drawn.
What was measured:
Type in all cases: cell-based
[1] = system: C. albicans T-2074 (DP-122); assay: microbe, parasite or virus in culture; settings: strain no. 12, T-2074 (DP-122), clinical isolate, FKS1 HS1-P649H mutation
Description: (§1) The antifungal activities of compounds 1a, 1 and 2 (collectively: caspofungin derivatives) were compared to that of caspofungin and CSF-BOD using a panel of 49 C. albicans and C. glabrata strains (Tables 1 and 2). The panel included ATCC strains and clinical isolates as well a collection of caspofungin-responsive strains and their corresponding isogenic caspofungin-resistant derivatives, constructed by introducing point mutations within and near the defined hotspots in the FKS1 and/or FKS2 genes of the GS complex. Minimal inhibitory concentration (MIC) values for all strains were determined using the broth double dilution method and are summarized in FIG. 2 and Table 2. […] The clinical breakpoints (threshold) for caspofungin-resistance in C. albicans and C. glabrata are 1 μg/mL and 0.5 μg/mL, respectively.

C. glabrata TGL00294 = assay: microbe, parasite or virus in culture; settings: strain no. 38, TGL00294, parental BG2, FKS mutant
Description: as §1

C. glabrata TGL00258 = assay: microbe, parasite or virus in culture; settings: strain no. 25, TGL00258, parental CST34, FKS mutant
Description: as §1

[2] = system: C. albicans DPL1015 (DP-A15); assay: microbe, parasite or virus in culture; settings: strain no. 2, DPL1015 (DP-A15), parental SC5314, FKS1 mutant HS1-S645S/P
Description: as §1

C. glabrata TGL00293 = assay: microbe, parasite or virus in culture; settings: strain no. 37, TGL00293, parental BG2, FKS mutant
Description: as §1

[3] = system: C. albicans T-2069 (DP-85); assay: microbe, parasite or virus in culture; settings: strain no. 14, T-2069 (DP-85), clinical isolate, FKS1 HS1-S645F mutation
Description: as §1

[4] = system: C. albicans T-2068 (DP-C42); assay: microbe, parasite or virus in culture; settings: strain no. 4, T-2068 (DP-C42), parental SC5314, FKS1 HS1-F641S mutation
Description: as §1

C. glabrata TGL00277 = assay: microbe, parasite or virus in culture; settings: strain no. 33, TGL00277, parental EF1620, FKS mutant
Description: as §1

C. glabrata TGL00265 = assay: microbe, parasite or virus in culture; settings: strain no. 30, TGL00265, parental CST78, FKS mutant
Description: as §1

C. glabrata TGL00291 = assay: microbe, parasite or virus in culture; settings: strain no. 36, TGL00291, parental BG2, FKS mutant
Description: as §1

[5] = system: C. glabrata T-985 (11-076); assay: microbe, parasite or virus in culture; settings: strain no. 49, T-985 (11-076), clinical isolate
Description: as §1

C. glabrata DPL1086 = assay: microbe, parasite or virus in culture; settings: strain no. 17, DPL1086, parental ATCC 90030, FKS1 mutant HS1-S629P
Description: as §1

C. glabrata TGL00056 = assay: microbe, parasite or virus in culture; settings: strain no. 22, TGL00056, parental CST34, FKS mutant
Description: as §1

C. glabrata TGL00054 = assay: microbe, parasite or virus in culture; settings: strain no. 19, TGL00054, parental CST109, FKS2 mutant
Description: as §1

C. glabrata ATCC 66032 = assay: MIC, broth double dilution; settings: strain no. 40, C. glabrata ATCC 66032
Description: as §1

C. glabrata CST34 = assay: MIC, broth double dilution; settings: strain no. 21, C. glabrata CST34 (parental)
Description: as §1

C. glabrata EF1620 = assay: MIC, broth double dilution; settings: strain no. 31, C. glabrata EF1620
Description: as §1

C. glabrata T-192 (1775) = assay: MIC, broth double dilution; settings: strain no. 44, T-192 (1775), clinical isolate
Description: as §1

C. albicans SC5314 = assay: MIC, broth double dilution; settings: strain no. 1, C. albicans SC5314, WT
Description: as §1

C. albicans ATCC 10231 = assay: MIC, broth double dilution; settings: strain no. 11, C. albicans ATCC 10231
Description: as §1

C. glabrata ATCC 90030 = assay: MIC, broth double dilution; settings: strain no. 16, C. glabrata ATCC 90030, WT
Description: as §1

C. albicans SN152 = assay: MIC, broth double dilution; settings: strain no. 5, C. albicans SN152
Description: as §1

C. glabrata ATCC 2001 = assay: MIC, broth double dilution; settings: strain no. 39, C. glabrata ATCC 2001
Description: as §1

[6] = system: C. glabrata T-983 (11-079); assay: MIC, broth double dilution; settings: strain no. 47, T-983 (11-079), clinical isolate
Description: as §1

[7] = system: C. glabrata T-191 (11-331); assay: MIC, broth double dilution; settings: strain no. 43, T-191 (11-331), clinical isolate
Description: as §1

C. glabrata ATCC 15126 = assay: MIC, broth double dilution; settings: strain no. 41, C. glabrata ATCC 15126
Description: as §1

[8] = system: C. glabrata T-193 (11-282); assay: MIC, broth double dilution; settings: strain no. 45, T-193 (11-282), clinical isolate
Description: as §1

[9] = system: C. glabrata T-984 (11-078); assay: MIC, broth double dilution; settings: strain no. 48, T-984 (11-078), clinical isolate
Description: as §1

C. albicans ATCC 24433 = assay: MIC, broth double dilution; settings: strain no. 6, C. albicans ATCC 24433
Description: as §1

C. glabrata CST109 = assay: MIC, broth double dilution; settings: strain no. 18, C. glabrata CST109 (parental)
Description: as §1

[10] = system: C. glabrata T-982 (11-181); assay: MIC, broth double dilution; settings: strain no. 46, T-982 (11-181), clinical isolate
Description: as §1

[11] = system: C. glabrata T-190 (11-304); assay: MIC, broth double dilution; settings: strain no. 42, T-190 (11-304), clinical isolate
Description: as §1

C. glabrata BG2 = assay: MIC, broth double dilution; settings: strain no. 34, C. glabrata BG2
Description: as §1

C. albicans BWP17 = assay: MIC, broth double dilution; settings: strain no. 9, BWP17, parental RM1000
Description: as §1

CC[C@H](C)C[C@H](C)CCCCCCCCC(=O)N[C@H]1C[C@@H](O)[C@@H](NCCNC(=O)CCc2ccc3n2[B-](F)(F)[N+]2=C(C)C=C(C)C2=C3)NC(=O)[C@@H]2[C@@H](O)CCN2C(=O)[C@H]([C@H](O)CCN)NC(=O)[C@H]([C@H](O)[C@@H](O)c2ccc(O)cc2)NC(=O)[C@@H]2C[C@@H](O)CN2C(=O)[C@H]([C@@H](C)O)NC1=O [CSF-BOD]
MIC [1]: 16 µg/mL (≈ 11.7 µM) | MIC (C. glabrata TGL00294): >64 µg/mL | MIC (C. glabrata TGL00258): >64 µg/mL | MIC [2]: 16 µg/mL (≈ 11.7 µM) | MIC (C. glabrata TGL00293): >64 µg/mL | MIC [3]: >64 µg/mL | MIC [4]: >64 µg/mL | MIC (C. glabrata TGL00277): >64 µg/mL | MIC (C. glabrata TGL00265): >64 µg/mL | MIC (C. glabrata TGL00291): >64 µg/mL | MIC [5]: 2 µg/mL (≈ 1.46 µM) | MIC (C. glabrata DPL1086): 16 µg/mL (≈ 11.7 µM) | MIC (C. glabrata TGL00056): >64 µg/mL | MIC (C. glabrata TGL00054): >64 µg/mL | MIC (C. glabrata ATCC 66032): 2 µg/mL (≈ 1.46 µM) | MIC (C. glabrata CST34): 1 µg/mL (≈ 0.731 µM) | MIC (C. glabrata EF1620): 1 µg/mL (≈ 0.731 µM) | MIC (C. glabrata T-192 (1775)): 2 µg/mL (≈ 1.46 µM) | MIC (C. albicans SC5314): 1 µg/mL (≈ 0.731 µM) | MIC (C. albicans ATCC 10231): 2 µg/mL (≈ 1.46 µM) | MIC (C. glabrata ATCC 90030): 2 µg/mL (≈ 1.46 µM) | MIC (C. albicans SN152): 1 µg/mL (≈ 0.731 µM) | MIC (C. glabrata ATCC 2001): 1 µg/mL (≈ 0.731 µM) | MIC [6]: 2 µg/mL (≈ 1.46 µM) | MIC [7]: 1 µg/mL (≈ 0.731 µM) | MIC (C. glabrata ATCC 15126): 2 µg/mL (≈ 1.46 µM) | MIC [8]: 1 µg/mL (≈ 0.731 µM) | MIC [9]: 2 µg/mL (≈ 1.46 µM) | MIC (C. albicans ATCC 24433): 2 µg/mL (≈ 1.46 µM) | MIC (C. glabrata CST109): 2 µg/mL (≈ 1.46 µM) | MIC [10]: 1 µg/mL (≈ 0.731 µM) | MIC [11]: 1 µg/mL (≈ 0.731 µM) | MIC (C. glabrata BG2): 2 µg/mL (≈ 1.46 µM) | MIC (C. albicans BWP17): 1 µg/mL (≈ 0.731 µM)

From patent US20230173018A1, “CASPOFUNGIN DERIVATIVES AND ASSAYS FOR EVALUATING ANTIFUNGAL TREATMENT EFFICACY” (priority 2020, published 2023)
